According to patent US8048879B2, “Substituted 4,5,6,7-tetrahydro-isoxazolo[4,5-c]pyridine compounds and use thereof for producing medicaments” (Gruenenthal GmbH, priority 2005, dated 2011):

system: batrachotoxin (BTX) binding site of the sodium channel; test: Affinity for the batrachotoxin (BTX) binding site of the sodium channel, [3H]-batrachotoxinin A20 α-benzoate, rat cerebrocortex synaptosomes; settings: test concentration not given

| Structure (SMILES) | BTX inhibition (rat) % inhibition [%] |
| --- | --- |
| O=C(NC1CCCC1)c1noc2c1CN(C(=O)NCc1ccc(F)cc1)CC2 [Example 2, 6,7-dihydro-4H-isoxazolo[4,5-c]pyridine-3,5-dicarboxylic acid 3-cyclopentyl amide 5-(4-fluorobenzyl amide)] | 83 |
| O=C(NCCN1CCOCC1)c1noc2c1CN(S(=O)(=O)c1cc(Cl)c(Cl)s1)CC2 [Example 63, 5-(4,5-dichloro-thiophene-2-sulfonyl)-4,5,6,7-tetrahydro-isoxazolo[4,5-c]pyridine-3-carboxylic acid (2-morpholin-4-yl-ethyl) amide] | 55 |
| N#Cc1cccc(NC(=O)N2CCc3onc(C(=O)NCc4cccs4)c3C2)c1 [Example 12, 6,7-dihydro-4H-isoxazolo[4,5-c]pyridine-3,5-dicarboxylic acid 5-[(3-cyano-phenyl) amide]3-[(thiophen-2-ylmethyl) amide]] | 47 |
| O=C(NCCc1ccccc1)c1noc2c1CN(C(=O)Nc1cccc(F)c1)CC2 [Example 8, 6,7-dihydro-4H-isoxazolo[4,5-c]pyridine-3,5-dicarboxylic acid 5-[(3-fluorophenyl) amide] 3-(phenethyl amide)] | 72 |
| CCCCOc1ccc(S(=O)(=O)N2CCc3onc(C(=O)NCC(C)C)c3C2)cc1 [Example 114, 5-(4-butoxy-benzenesulfonyl)-4,5,6,7-tetrahydro-isoxazolo[4,5-c]pyridine-3-carboxylic acid isobutyl amide] | 58 |
| O=C(NC1CCCC1OCc1ccccc1)c1noc2c1CN(S(=O)(=O)c1cc(Cl)ccc1Cl)CC2 (centres unmarked) [Example 40, 5-(2,5-dichloro-benzenesulfonyl)-4,5,6,7-tetrahydro-isoxazolo[4,5-c]pyridine-3-carboxylic acid (2-benzyloxy-cyclopentyl) amide] | 65 |
| O=C(c1noc2c1CN(S(=O)(=O)c1ccc(F)cc1)CC2)N1CCN(c2ncnc3sccc23)CC1 [Example 34] | 42 |
| O=C(c1noc2c1CN(S(=O)(=O)c1ccc(Cl)c(Cl)c1)CC2)N1CCC(CCN2CCCC2)CC1 [Example 147, (5-(3,4-dichlorophenylsulfonyl)-4,5,6,7-tetrahydroisoxazolo[4,5-c]pyridin-3-yl)(4-(2-(pyrrolidin-1-yl)ethyl)piperidin-1-yl)methanone] | 70 |
| COCCNC(=O)c1noc2c1CN(C(=O)c1ccc(C(F)(F)F)c(F)c1)CC2 [Example 153, 5-(3-fluoro-4-(trifluoromethyl)benzoyl)-N-(2-methoxyethyl)-4,5,6,7-tetrahydroisoxazolo[4,5-c]pyridine-3-carboxamide] | 28 |
| CC(NC(=O)N1CCc2onc(C(=O)NCc3ccccc3)c2C1)c1ccccc1 (centres unmarked) [Example 150, N^3-benzyl-N^5-(1-phenylethyl)-6,7-dihydroisoxazolo[4,5-c]pyridine-3,5(4H)-dicarboxamide] | 49 |
| CCOc1ccc(NC(=O)N2CCc3onc(C(=O)NCc4ccc(F)cc4)c3C2)cc1 [Example 21, 6,7-dihydro-4H-isoxazolo[4,5-c]pyridine-3,5-dicarboxylic acid 5-[(4-ethoxy-phenyl) amide] 3-(4-fluorobenzyl amide)] | 68 |
| O=C(NCCc1ccccc1Cl)c1noc2c1CN(S(=O)(=O)c1cc(Cl)ccc1Cl)CC2 [Example 52, 5-(2,5-dichloro-benzenesulfonyl)-4,5,6,7-tetrahydro-isoxazolo[4,5-c]pyridine-3-carboxylic acid [2-(2-chlorophenyl)-ethyl] amide] | 44 |
| CC(C)CNC(=O)c1noc2c1CN(C(=O)C(NC(=O)OCc1ccccc1)c1ccccc1)CC2 (centres unmarked) [Example 126, [2-(3-isobutylcarbamoyl-6,7-dihydro-4H-isoxazolo[4,5-c]pyridin-5-yl)-2-oxo-1-phenyl-ethyl]-carbamic acid benzyl ester] | 88 |
| Cc1cc(C(=O)N2CCc3onc(C(=O)NCCN4CCOCC4)c3C2)ccc1Br [Example 90, 5-(4-bromo-3-methyl-benzoyl)-4,5,6,7-tetrahydro-isoxazolo[4,5-c]pyridine-3-carboxylic acid (2-morpholin-4-yl-ethyl) amide] | 42 |
| O=C(Nc1ccccc1)c1noc2c1CN(C(=O)Nc1ccc(OC(F)(F)F)cc1)CC2 [Example 3, 6,7-dihydro-4H-isoxazolo[4,5-c]pyridine-3,5-dicarboxylic acid 3-phenyl amide 5-[(4-trifluoromethoxy-phenyl) amide]] | 73 |
| O=C(c1noc2c1CN(S(=O)(=O)c1ccccc1)CC2)N1CCN(CC=Cc2ccccc2)CC1 [Example 97, (5-benzenesulfonyl-4,5,6,7-tetrahydro-isoxazolo[4,5-c]pyridin-3-yl)-[4-(3-phenyl-allyl)-piperazin-1-yl]-methanone] | 70 |

| Structure (SMILES) | BTX inhibition (rat) % inhibition [%] |
| --- | --- |
| O=C(NCCN1CCCC1)c1noc2c1CN(S(=O)(=O)c1cccc(Cl)c1)CC2 [Example 118, 5-(3-chloro-benzenesulfonyl)-4,5,6,7-tetrahydro-isoxazolo[4,5-c]pyridine-3-carboxylic acid (2-pyrrolidin-1-yl-ethyl) amide] | 76 |
| O=C(NCCN1CCCC1)c1noc2c1CN(C(=O)COc1cccc(Cl)c1)CC2 [Example 155, 5-(2-(3-chlorophenoxy)acetyl)-N-(2-(pyrrolidin-1-yl)ethyl)-4,5,6,7-tetrahydroisoxazolo[4,5-c]pyridine-3-carboxamide] | 64 |
| CC(NC(=O)N1CCc2onc(C(=O)NCCc3ccccc3)c2C1)c1cccc2ccccc12 (centres unmarked) [Example 18, 6,7-dihydro-4H-isoxazolo[4,5-c]pyridine-3,5-dicarboxylic acid 5-[(1-naphthalen-1-yl-ethyl) amide]3-(phenethyl amide)] | 75 |
| O=C(NCc1ccc(C(F)(F)F)c(F)c1)c1noc2c1CN(S(=O)(=O)c1ccccc1)CC2 [Example 113, 5-benzenesulfonyl-4,5,6,7-tetrahydro-isoxazolo[4,5-c]pyridine-3-carboxylic acid 3-fluoro-4-trifluoromethyl-benzyl amide] | 60 |
| O=C(c1noc2c1CN(S(=O)(=O)c1ccc3ccccc3c1)CC2)N1CCN(c2nccs2)CC1 [Example 143, (5-(naphthalen-2-ylsulfonyl)-4,5,6,7-tetrahydroisoxazolo[4,5-c]pyridin-3-yl)(4-(thiazol-2-yl)piperazin-1-yl)methanone] | 48 |
| CN(C)S(=O)(=O)N1CCc2onc(C(=O)NCCc3ccc(Cl)cc3)c2C1 [Example 76, 5-dimethylsulfamoyl-4,5,6,7-tetrahydro-isoxazolo[4,5-c]pyridine-3-carboxylic acid [2-(4-chlorophenyl)-ethyl] amide] | 41 |
| COc1ccc(CNC(=S)N2CCc3onc(C(=O)NC4CCCC4)c3C2)cc1 [Example 127, 5-(4-methoxy-benzylthiocarbamoyl)-4,5,6,7-tetrahydro-isoxazolo[4,5-c]pyridine-3-carboxylic acid cyclopentyl amide] | 74 |
| O=C(c1noc2c1CN(S(=O)(=O)c1cccc(C(F)(F)F)c1)CC2)N(CCc1ccccc1)Cc1ccccc1 [Example 68, 5-(3-trifluoromethyl-benzenesulfonyl)-4,5,6,7-tetrahydro-isoxazolo[4,5-c]pyridine-3-carboxylic acid benzyl-phenethyl amide] | 51 |
| COc1ccc(NC(=O)N2CCc3onc(C(=O)NCc4ccc(S(N)(=O)=O)cc4)c3C2)cc1 [Example 154, N^5-(4-methoxyphenyl)-N^3-(4-sulfamoylbenzyl)-6,7-dihydroisoxazolo[4,5-c]pyridine-3,5(4H)-dicarboxamide] | 4 |
| COc1ccc(NC(=O)N2CCc3onc(C(=O)NCc4ccccc4)c3C2)cc1 [Example 151, N^3-benzyl-N^5-(4-methoxyphenyl)-6,7-dihydroisoxazolo[4,5-c]pyridine-3,5(4H)-dicarboxamide] | 36 |
| CC12CCC(C(=O)N3CCc4onc(C(=O)NCCN5CCCC5)c4C3)(OC1=O)C2(C)C (centres unmarked) [Example 51, 5-(4,7,7-trimethyl-3-oxo-2-oxa-bicyclo[2.2.1]heptane-1-carbonyl)-4,5,6,7-tetrahydro-isoxazolo[4,5-c]pyridine-3-carboxylic acid (2-pyrrolidin-1-yl-ethyl) amide] | 42 |
| Cl.O=C(c1noc2c1CN(S(=O)(=O)c1cccc3ccccc13)CC2)N1CCC(CCN2CCCC2)CC1 [Example 149, (5-(Naphthalene-1-ylsulfonyl)-4,5,6,7-tetrahydroisoxazolo[4,5-c]pyridin-3-yl)(4-(2-(pyrrolidin-1-yl)ethyl)piperidin-1-yl)methanone hydrochloride] | 86 |
| Cc1cc(C)c(S(=O)(=O)N2CCc3onc(C(=O)N4CCC(CCN5CCCC5)CC4)c3C2)c(C)c1 [Example 146, (5-(mesitylsulfonyl)-4,5,6,7-tetrahydroisoxazolo[4,5-c]pyridin-3-yl)(4-(2-(pyrrolidin-1-yl)ethyl)piperidin-1-yl)methanone] | 81 |
| O=C(Nc1ccccc1)c1noc2c1CN(Cc1ccc3ccccc3c1Br)CC2 [Example 135, 5-(1-bromo-naphthalen-2-ylmethyl)-4,5,6,7-tetrahydro-isoxazolo[4,5-c]pyridine-3-carboxylic acid phenyl amide] | 61 |
| Cc1cc(C)c(S(=O)(=O)N2CCc3onc(C(=O)N4CCN(c5nccs5)CC4)c3C2)c(C)c1 [Example 141, (5-(mesitylsulfonyl)-4,5,6,7-tetrahydroisoxazolo[4,5-c]pyridin-3-yl)(4-(thiazol-2-yl)piperazin-1-yl)methanone] | 67 |
| O=C(c1noc2c1CN(S(=O)(=O)c1ccc(Cl)c(Cl)c1)CC2)N1CCN(c2nccs2)CC1 [Example 140, (5-(3,4-dichlorophenylsulfonyl)-4,5,6,7-tetrahydroisoxazolo[4,5-c]pyridin-3-yl)(4-(thiazol-2-yl)piperazin-1-yl)methanone] | 55 |
